# Reference: ChEMBL document CHEMBL2074160, “Polyspecific drug and steroid clearance by an organic anion transporter of mammalian liver” (J Pharmacol Exp Ther, 1996)
# B1: Solute carrier organic anion transporter family member 1A1 (Rattus norvegicus) (protein)
# chain: MEETEKKIATQEGRLFSKMKVFLLSLTCACLTKSLSGVYMNSMLTQIERQFDISTSVAGLINGSFEIGNLFFIVFVSYFGTKLHRPVVIGIGCVIMGLGCLLMSLPHFFMGRYEYETTISPTGNLSSNSFLCMENRTQTLKPTQDPAECVKEMKSLMWICVMVGNIIRGIGETPIVPLGISYIEDFAKSENSPLYIGILEMGKVAGPIFGLLLGSYCAQIYVDIGSVNTDDLTITPSDTRWVGAWWIGFLVCAGVNILTSIPFFFLPKALPKKGQQENVAVTKDGKVEKYGGQAREENLGITKDFLTFMKRLFCNPIYMLFILTSVLQVNGFINKFTFLPKYLEQQYGKSTAEAIFLIGVYSLPPICLGYLIGGFIMKKFKITVKKAAYLAFCLSVFEYLLFLCHFMLTCDNAAVAGLTTSYKGVQHQLHVESKVLADCNTRCSCSTNTWDPVCGDNGVAYMSACLAGCKKFVGTGTNMVFQDCSCIQSLGNSSAVLGLCKKGPECANRLQYFLILTIIISFIYSLTAIPGYMVFLRCVKSEEKSLGVGLHTFCIRVFAGIPAPVYFGALIDRTCLHWGTLKCGQRGACRMYDINSFRHIYLGLPIALRGSSYLPAFFILILMRKFQFPGDIDSSATDHTEMMLGEKESEHTDVHGSPQVENDGELKTKL
# How the values were obtained:
# [1] = target: T1, Solute carrier organic anion transporter family member 1A1 (Rattus norvegicus, UniProt P46720); assay: TP_TRANSPORTER: inhibition of Ouabain uptake (Ouabain: 100 uM, Estrone-3-glucuronide: 100 uM) in Xenopus laevis oocytes; assay type: functional, cell-based, Oocyte; parameters: scale not given: the % may be the effect or the level left; details: probe Ouabain (100 uM), read-out: Activity
# T1 sequence (P46720 whole entry): B1 chain
# [2] = target: T1, Solute carrier organic anion transporter family member 1A1; assay: TP_TRANSPORTER: inhibition of Ouabain uptake (Ouabain: 100 uM, Estradiol-3-glucuronide: 100 uM) in Xenopus laevis oocytes; assay type: functional, cell-based, Oocyte; parameters: scale not given: the % may be the effect or the level left; details: probe Ouabain (100 uM), read-out: Activity
# [3] = target: T1, Solute carrier organic anion transporter family member 1A1; assay: TP_TRANSPORTER: inhibition of Ouabain uptake (Ouabain: 100 uM, Aldosterone: 100 uM) in Xenopus laevis oocytes; assay type: functional, cell-based; parameters: scale not given: the % may be the effect or the level left; details: oocyte
# [4] = target: T1, Solute carrier organic anion transporter family member 1A1; assay: TP_TRANSPORTER: inhibition of Ouabain uptake (Ouabain: 100 uM, Corticosterone: 100 uM) in Xenopus laevis oocytes; assay type: functional, cell-based; parameters: scale not given: the % may be the effect or the level left; details: oocyte
# [5] = target: T1, Solute carrier organic anion transporter family member 1A1; assay: (§1) TP_TRANSPORTER: uptake in Xenopus laevis oocytes; assay type: functional, cell-based, Oocyte
# [6] = target: T1, Solute carrier organic anion transporter family member 1A1; assay: TP_TRANSPORTER: inhibition of Ouabain uptake (Ouabain: 100 uM, Dexamethasone: 100 uM) in Xenopus laevis oocytes; assay type: functional, cell-based, Oocyte; parameters: scale not given: the % may be the effect or the level left; details: probe Ouabain (100 uM), read-out: Activity
# [7] = target: T1, Solute carrier organic anion transporter family member 1A1; assay: TP_TRANSPORTER: inhibition of Ouabain uptake (Ouabain: 100 uM, Digitoxin: 100 uM) in Xenopus laevis oocytes; assay type: functional, cell-based, Oocyte; parameters: scale not given: the % may be the effect or the level left; details: probe Ouabain (100 uM), read-out: Activity
# [8] = target: T1, Solute carrier organic anion transporter family member 1A1; assay: TP_TRANSPORTER: inhibition of Ouabain uptake (Ouabain: 100 uM, Digoxigenin: 100 uM) in Xenopus laevis oocytes; assay type: functional, cell-based, Oocyte; parameters: scale not given: the % may be the effect or the level left; details: probe Ouabain (100 uM), read-out: Activity
# [9] = target: T1, Solute carrier organic anion transporter family member 1A1; assay: TP_TRANSPORTER: inhibition of Ouabain uptake (Ouabain: 100 uM, E217betaG: 100 uM) in Xenopus laevis oocytes; assay type: functional, cell-based, Oocyte; parameters: scale not given: the % may be the effect or the level left; details: probe Ouabain (100 uM), read-out: Activity
# [10] = target: T1, Solute carrier organic anion transporter family member 1A1; assay: TP_TRANSPORTER: inhibition of Ouabain uptake (Ouabain: 100 uM, beta-Estradiol: 100 uM) in Xenopus laevis oocytes; assay type: functional, cell-based, Oocyte; parameters: scale not given: the % may be the effect or the level left; details: probe Ouabain (100 uM), read-out: Activity
# [11] = target: T1, Solute carrier organic anion transporter family member 1A1; assay: TP_TRANSPORTER: inhibition of Ouabain uptake (Ouabain: 100 uM, E1S: 100 uM) in Xenopus laevis oocytes; assay type: functional, cell-based; parameters: scale not given: the % may be the effect or the level left; details: oocyte
# [12] = target: T1, Solute carrier organic anion transporter family member 1A1; assay: TP_TRANSPORTER: inhibition of Ouabain uptake (Ouabain: 100 uM, Cortisol: 100 uM) in Xenopus laevis oocytes; assay type: functional, cell-based, Oocyte; parameters: scale not given: the % may be the effect or the level left; details: probe Ouabain (100 uM), read-out: Activity
# [13] = target: T1, Solute carrier organic anion transporter family member 1A1; assay: TP_TRANSPORTER: inhibition of Ouabain uptake (Ouabain: 100 uM, ICG: 100 uM) in Xenopus laevis oocytes; assay type: functional, cell-based; parameters: scale not given: the % may be the effect or the level left; details: oocyte
# [14] = target: T1, Solute carrier organic anion transporter family member 1A1; assay: TP_TRANSPORTER: inhibition of Ouabain uptake (Ouabain: 100 uM, Prednisolone: 100 uM) in Xenopus laevis oocytes; assay type: functional, cell-based, Oocyte; parameters: scale not given: the % may be the effect or the level left; details: probe Ouabain (100 uM), read-out: Activity
# [15] = target: T1, Solute carrier organic anion transporter family member 1A1; assay: TP_TRANSPORTER: inhibition of Ouabain uptake (Ouabain: 100 uM, Prednisone: 100 uM) in Xenopus laevis oocytes; assay type: functional, cell-based; parameters: scale not given: the % may be the effect or the level left; details: oocyte
# [16] = target: T1, Solute carrier organic anion transporter family member 1A1; assay: TP_TRANSPORTER: inhibition of Ouabain uptake (Ouabain: 100 uM, Rose bengal: 100 uM) in Xenopus laevis oocytes; assay type: functional, cell-based; parameters: scale not given: the % may be the effect or the level left; details: oocyte
# [17] = target: T1, Solute carrier organic anion transporter family member 1A1; assay: TP_TRANSPORTER: inhibition of Ouabain uptake (Ouabain: 100 uM, BSP: 100 uM) in Xenopus laevis oocytes; assay type: functional, cell-based, Oocyte; parameters: scale not given: the % may be the effect or the level left; details: probe Ouabain (100 uM), read-out: Activity
# [18] = target: T1, Solute carrier organic anion transporter family member 1A1; assay: TP_TRANSPORTER: inhibition of Ouabain uptake (Ouabain: 100 uM, Testosterone: 100 uM) in Xenopus laevis oocytes; assay type: functional, cell-based, Oocyte; parameters: scale not given: the % may be the effect or the level left; details: probe Ouabain (100 uM), read-out: Activity
# [19] = substrate: C[C@]12CC[C@@H]3c4ccc(O)cc4CC[C@H]3[C@@H]1CC[C@@H]2O[C@@H]1O[C@H](C(=O)O)[C@@H](O)[C@H](O)[C@H]1O; assay: as §1; assay type: functional, cell-based, Oocyte
# [20] = substrate: C[C@]12CCC(=O)C=C1CC[C@@H]1[C@@H]2[C@@H](O)C[C@@]2(C)[C@H]1CC[C@]2(O)C(=O)CO; assay: as §1; assay type: functional, cell-based, Oocyte
# [21] = substrate: C[C@]12CCC(=O)C=C1CC[C@@H]1[C@@H]2[C@@H](O)C[C@]2(C=O)[C@@H](C(=O)CO)CC[C@@H]12; assay: as §1; assay type: functional, cell-based, Oocyte
# [22] = substrate: C[C@]12CC[C@@H]3c4ccc(OS(=O)(=O)O)cc4CC[C@H]3[C@@H]1CCC2=O; assay: as §1; assay type: functional, cell-based, Oocyte
molecule,measurement,setting,value
C[C@]12CC[C@@H]3c4ccc(O[C@@H]5O[C@H](C(=O)O)[C@@H](O)[C@H](O)[C@H]5O)cc4CC[C@H]3[C@@H]1CCC2=O,activity at 100 µM,[1],24%
C[C@]12CC[C@@H]3c4ccc(O[C@@H]5O[C@H](C(=O)O)[C@@H](O)[C@H](O)[C@H]5O)cc4CC[C@H]3[C@@H]1CC[C@@H]2O,activity at 100 µM,[2],27%
C[C@]12CCC(=O)C=C1CC[C@@H]1[C@@H]2[C@@H](O)C[C@]2(C=O)[C@@H](C(=O)CO)CC[C@@H]12 [ALDOSTERONE],Activity,[3],10%
C[C@]12C[C@H](O)[C@H]3[C@@H](CCC4=CC(=O)CC[C@@]43C)[C@@H]1CC[C@@H]2C(=O)CO [CORTICOSTERONE],Activity,[4],15%
C[C@@H]1C[C@H]2[C@@H]3CCC4=CC(=O)C=C[C@]4(C)[C@@]3(F)[C@@H](O)C[C@]2(C)[C@@]1(O)C(=O)CO [DEXAMETHASONE],Activity,[5]; oocyte,substrate [+]
same,activity at 100 µM,[6],26%
C[C@H]1O[C@@H](O[C@H]2[C@@H](O)C[C@H](O[C@H]3[C@@H](O)C[C@H](O[C@H]4CC[C@@]5(C)[C@H](CC[C@@H]6[C@@H]5CC[C@]5(C)[C@@H](C7=CC(=O)OC7)CC[C@]65O)C4)O[C@@H]3C)O[C@@H]2C)C[C@H](O)[C@@H]1O [DIGITOXIN],activity at 100 µM,[7],29%
C[C@]12CC[C@H](O)C[C@H]1CC[C@@H]1[C@@H]2C[C@@H](O)[C@]2(C)[C@@H](C3=CC(=O)OC3)CC[C@]12O [DIGOXIGENIN],activity at 100 µM,[8],19%
C[C@]12CC[C@@H]3c4ccc(O)cc4CC[C@H]3[C@@H]1CC[C@@H]2O[C@@H]1O[C@H](C(=O)O)[C@@H](O)[C@H](O)[C@H]1O [ESTRADIOL 17B GLUCURONIDE],activity at 100 µM,[9],16%
C[C@]12CC[C@@H]3c4ccc(O)cc4CC[C@H]3[C@@H]1CC[C@@H]2O [ESTRADIOL],activity at 100 µM,[10],40%
C[C@]12CC[C@@H]3c4ccc(OS(=O)(=O)O)cc4CC[C@H]3[C@@H]1CCC2=O [ESTRONE SULFURIC ACID],Activity,[11],10%
C[C@]12CCC(=O)C=C1CC[C@@H]1[C@@H]2[C@@H](O)C[C@@]2(C)[C@H]1CC[C@]2(O)C(=O)CO [HYDROCORTISONE],activity at 100 µM,[12],19%
CC1(C)C(/C=C/C=C/C=C/C=C2/N(CCCCS(=O)(=O)[O-])c3ccc4ccccc4c3C2(C)C)=[N+](CCCCS(=O)(=O)[O-])c2ccc3ccccc3c21.[Na+] [INDOCYANINE GREEN],Activity,[13],6%
C[C@@H]1O[C@@H](O[C@H]2C[C@@H](O)[C@]3(CO)[C@H]4[C@H](O)C[C@]5(C)[C@@H](C6=CC(=O)OC6)CC[C@]5(O)[C@@H]4CC[C@]3(O)C2)[C@H](O)[C@H](O)[C@H]1O [OUABAIN],Km,[5]; Xenopus laevis oocytes,1700 µM
C[C@]12C=CC(=O)C=C1CC[C@@H]1[C@@H]2[C@@H](O)C[C@@]2(C)[C@H]1CC[C@]2(O)C(=O)CO [PREDNISOLONE],activity at 100 µM,[14],40%
C[C@]12C=CC(=O)C=C1CC[C@@H]1[C@@H]2C(=O)C[C@@]2(C)[C@H]1CC[C@]2(O)C(=O)CO [PREDNISONE],Activity,[15],34%
O=C([O-])c1c(Cl)c(Cl)c(Cl)c(Cl)c1-c1c2cc(I)c(=O)c(I)c-2oc2c(I)c([O-])c(I)cc12.[Na+].[Na+] [ROSE BENGAL SODIUM],Activity,[16],4%
O=C1OC(c2ccc(O)c(S(=O)(=O)O)c2)(c2ccc(O)c(S(=O)(=O)O)c2)c2c(Br)c(Br)c(Br)c(Br)c21 [SULFOBROMOPHTHALEIN SODIUM],activity at 100 µM,[17],6%
C[C@]12CC[C@H]3[C@@H](CCC4=CC(=O)CC[C@@]43C)[C@@H]1CC[C@@H]2O [TESTOSTERONE],activity at 100 µM,[18],16%
B1,Km,[19],3 µM
same,Km,[20],13 µM
same,Km,[21],0.015 µM
same,Km,[22],4.5 µM
